Results from US20200009197A1, “COMPOSITIONS AND METHODS FOR THE REPROGRAMMING OF CELLS INTO CARDIOMYOCYTES” (Duke University, priority 2014, published 2020).

Experiments:
[1] = cited from earlier work
[2] = during controlled therapy; cited from earlier work
[3] = test system: neonatal cardiac fibroblasts; assay: qPCR of cardiac and pluripotency gene expression in neonatal cardiac fibroblasts (with or without miR combo transfection); format: cell-based, Mouse (C57BL/6)
Method: Mouse (C57BL/6) neonatal cardiac fibroblasts or tail tip fibroblasts were isolated from 2 day old mouse neonates according to known methods e.g., outlined in Jayawardena et al [Jayawardena T, Mirotsou M, Dzau V J. Direct reprogramming of cardiac fibroblasts to cardiomyocytes using microRNAs. Methods in molecular biology. 2014; 1150:263-272]. Cells were cultured in growth media containing DMEM (ATCC) supplemented with 15% v/v FBS and 1% v/v penicillin/streptomycin. Cells were used at passage 1 or passage 2.
Cells were seeded at 5000 cells/cm^2 in growth media. Twenty-four hours later growth media was replaced with chemically defined reprogramming media (Advanced DMEM/F12, 0.2% w/v BSA, 250 μM Ascorbic Acid, 1× Insulin-Transferrin-Selenium, 1× L-Glutamine, 1× Penicillin-Streptomycin). Fresh media was added every two days.
Fibroblasts were seeded into a 24 well-plate at 9,000 cells/well. […]
The GM comprises the following: DMEM (ATCC#30-2002), 15% v/v embryonic stem cell qualified fetal bovine serum, and 1× penicillin/streptomycin. […] Differentiation was assessed by qPCR, immunocytochemistry, and flow cytometry.

Compound: O=C(O)C(Cc1c[nH]c2ccccc12)N1C(=O)c2ccccc2C1=O (stereo not drawn) [RG108, 2-(1,3-Dioxo-1,3-dihydro-2H-isoindol-2-yl)-3-(1H-indol-3-yl)propionic acid]
- soluble to, in DMSO ([1]; DMSO): 100 mM
- soluble to, in ethanol [1]: 100 mM

Compound: O=C(O)C=C(CCc1ccc(Cl)cc1)c1ccccc1 [PS48, 5-(4-Chloro-phenyl)-3-phenyl-pent-2-enoic acid]
- solubility in DMSO ([1]; DMSO): soluble in DMSO

Compound: COC(=O)C1=C(C)NC(C)=C([N+](=O)[O-])[C@@H]1c1ccccc1C(F)(F)F [R(+)Bay K 8644, R-(+)-1,4-Dihydro-2,6-dimethyl-5-nitro-4-[2-(trifluoromethyl)phenyl]-3-pyridinecarboxylic acid methyl ester]
- soluble to, in DMSO ([1]; DMSO): 100 mM
- soluble to, in ethanol [1]: 100 mM

Compound: CCCC(CCC)C(=O)O [Valproic acid, 2-propylpentanoic acid]
- serum or plasma concentrations [2]: 20 to 100 mg/L

Compound: Cc1cccc(-c2nn(C(=S)Nc3ccccc3)cc2-c2ccnc3ccccc23)n1 [A83-01, 3-(6-Methyl-2-pyridinyl)-N-phenyl-4-(4-quinolinyl)-1H-pyrazole-1-c arbothioamide]
- soluble to, in DMSO ([1]; DMSO): 100 mM

Compound: O=C1O[C@H]([C@@H](O)CO)C(O)=C1O [ascorbic acid]
- effects of miR-combo upon cardiac gene expression ([3]; added to growth media): augmented
- additive effect on cardiac gene expression at gene and protein level ([3]; increasing concentration): increased the additive effect
